Test system: mESC Bmi1-luciferase reporter, firefly/renilla ratio, 24 h
Test: Bmi1-luciferase reporter activators in mESC, dose response, esBAF inhibitor project, mouse embryonic stem cells, cherry-pick (AID 651717);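 further: luciferase knocked into Bmi1 locus with EF-1a renilla as cell number control; rising ratio signals esBAF inhibition which derepresses Bmi1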

Row | Compound | AC40
1 | O=C(Nc1cccc(F)c1)c1c(O)c2ccccc2[nH]c1=O | 1.29 µM
2 | O=c1c(-c2nc3ccccc3s2)cccn1Cc1ccc(Cl)cc1 | 3.09 µM
3 | Clc1cccc(Cl)c1Cn1nnc(-c2cccs2)n1 | 3.31 µM
4 | COc1cccc(NC(=O)c2ccc3c(c2)CCN3S(C)(=O)=O)c1 | 7.43 µM
5 | CC(=O)NCCNc1nc2cc(-c3ccc(C)cc3)sc2c(=O)n1C | 14.3 µM
6 | COc1ccccc1C(=O)NCCC(=O)NC1CCC(C)CC1 (stereo not drawn) | 4.6 µM
7 | Clc1cccc2sc(N3CCCCC3)nc12 | 5.75 µM
8 | CC(C)(C)Nc1nc(Cl)nc(Nc2ccccc2)n1 | 2.09 µM
9 | COc1cccc(NC(=O)C(=O)NCC2CCCN2S(=O)(=O)c2cccs2)c1 (stereo not drawn) | 1.25 µM
10 | COC(=O)c1c(-c2ccc(Br)cc2)noc1N | 14.7 µM
11 | Cc1cccc(-c2noc(CCC(=O)N3CCN(c4cc(C)ccc4C)CC3)n2)c1 | 2.82 µM
12 | c1ccc(CCNc2ccc3c(c2)Cc2ccccc2-3)nc1 | 1.53 µM
13 | O=C1c2ccccc2CN1c1ccccc1 | 3.89 µM
14 | C/C(=N/O)c1cccc(N2Cc3ccccc3C2)c1 | 18.5 µM
15 | CC(=O)Nc1ccccc1OCc1nnc(-c2ccc(Cl)cc2)o1 | 8.95 µM
16 | CCc1sc(C(=O)Nc2ncccc2C)cc1C | 20.1 µM
17 | O=c1oc(-c2ccccc2)cc2ccccc12 | 3.89 µM
18 | Cc1ccccc1-c1nnc(-c2cccc3ccccc23)o1 | 0.85 µM
19 | CN(C)c1ccc(CN(C(=O)c2cc3ccccc3oc2=O)C2CCS(=O)(=O)C2)cc1 (stereo not drawn) | 3.62 µM
20 | Cc1ccnc(NC(=O)c2ccc3c(c2)C(=O)N(CC(C)C)C3=O)c1 | 2.87 µM
21 | COC(=O)c1sccc1NC(=O)c1ccc(OC)cc1 | 6.81 µM

Row | Compound | AC40
22 | CCC(C)c1ccc(NC(=O)C2CC2)cc1 (stereo not drawn) | 5.85 µM
23 | COc1ccc(C(=O)Nc2ccc(Cl)cn2)cc1Cl | 2.38 µM
24 | CC(=O)c1ccc(OCc2cc(C(=O)N(C)Cc3cc(C)no3)no2)cc1 | 7.14 µM
25 | Nc1nc(-c2ccc(Oc3ccccc3)cc2)cs1 | 7.87 µM
26 | Cc1c(C(=O)NCc2cccnc2)sc2nc(-c3ccccc3)cn12 | 30.8 µM
27 | Cc1nc(Nc2ccccc2)sc1C(=O)c1ccc(F)cc1 | 3.93 µM
28 | CCn1c(COc2ccccc2)nc2ccccc21 | 22 µM
29 | CC(C)CN1C(=O)c2ccc(NC(=O)c3cccs3)cc2C1=O | 3.84 µM
30 | N#Cc1nc(COc2ccccc2)oc1N1CCCCC1 | 15.6 µM
31 | Cc1cccc(-c2noc(Cc3ccc(Cl)cc3)n2)c1 | 5.96 µM
32 | Cc1csc(NC(=O)Cc2ccc(F)cc2)n1 | 7.58 µM
33 | COc1ccccc1C(=O)Oc1ccccc1C(=O)Nc1ccccc1 | 5.18 µM
34 | O=c1sc(N2CCN(c3ccc(F)cc3)CC2)nc2ccsc12 | 1.76 µM
35 | COc1ccccc1C=Cc1ccnc2ccccc12 | 7.65 µM
36 | OC(c1ccc(F)c(F)c1)c1nc(-c2ccc3ccccc3c2)cs1 (stereo not drawn) | 20.3 µM
37 | COc1cccc2cc(C(=O)N3CCc4ccccc4C3)c(=O)oc12 | 26.9 µM
38 | N#Cc1ccc(C=NN2CCCCCC2)cc1 | 2.62 µM
39 | Cc1cc(-c2nnc(-c3cccc(C(F)(F)F)c3)o2)no1 | 6.58 µM
40 | COc1ccc(CNC(=O)Nc2ccc(C)cc2)cc1 | 8.63 µM
41 | FC(F)Oc1ccccc1/C=N/Nc1nc2ccccc2o1 | 3.81 µM
42 | O=C(c1ccncc1)N1N=C(c2ccc(Cl)cc2)CC1c1ccccc1O (stereo not drawn) | 2.04 µM

Row | Compound | AC40
43 | Cc1csc(N/N=C/c2ccccc2F)n1 | 1.01 µM
44 | CC(C)CC1C(=O)N(Cc2cn(CCC3OCCCO3)nn2)CCS(=O)(=O)N1Cc1ccc(-c2ccc(Cl)nc2)cc1 (stereo not drawn) | 12.9 µM
45 | O=C1Nc2ccccc2N=C(c2ccc3c(c2)OCO3)C1N(C(=O)c1ccc2ccccc2c1)C1CC1 (stereo not drawn) | 1.26 µM
46 | CC(C)c1ccc(CNc2ncc(Br)cn2)cc1 | 4.25 µM
47 | Cc1nc(NCc2ccccc2)sc1C(=O)Nc1ccccc1 | 8.44 µM
48 | CSc1ccccc1NC(=O)c1ccc(N2CCCC2=O)cc1 | 2.01 µM
49 | CC(=Nc1ccccc1O)c1sc2ccccc2c1O | 3.82 µM
50 | O=C(O)c1cc(-c2ccc(-c3c(-c4ccc5c(c4)OCO5)noc3-c3ccsc3)cc2)nc2ccccc12 | 6.89 µM
51 | CC(C)NC(=O)CCc1nnc(Cc2cccc(C(F)(F)F)c2)o1 | 15.3 µM
52 | COc1ccc(NC(=O)c2cc(C3CC3)on2)c(OC)c1 | 11.8 µM
53 | COc1cccc2sc(NC(=O)c3ccc(Br)s3)nc12 | 1.85 µM
54 | NCC(=O)c1ccccc1 | 23 µM
55 | Cc1ccc(C)c(N2CCN(C(=O)CCc3nc(-c4cccc(Cl)c4)no3)CC2)c1 | 2.83 µM
56 | CO[C@H]1CN(C)C(=O)c2cc(NC(=O)Nc3ccc4c(c3)OCO4)ccc2OC[C@H](C)NC[C@H]1C | 3.29 µM
57 | CC1CCCC(C)N1CCCNC(=O)c1ccc2nc(N3CCCCC3)sc2c1 (stereo not drawn) | 9 µM
58 | O=C1NC(=Nc2ccccc2)S/C1=C\c1cccn1-c1ccccc1 | 2.43 µM
59 | CCCCCCCNC(=O)C1(CC2CC(c3ccccc3)=NO2)CCN(C(=O)OC(C)(C)C)CC1 (stereo not drawn) | 15.4 µM
60 | CCCC(=O)N1CCN(c2nc3ccc(Br)cc3s2)CC1 | 1.7 µM
61 | O=C(NC1CCCCC1)c1ccc(-c2ccccc2)cc1 | 3.77 µM
62 | O=C(c1cc2c(s1)-c1ccccc1OC2)N1CCCC1 | 1.71 µM
63 | Cc1ccc(OCc2cc(C(=O)N3CCC(c4ccccc4Cl)C3)no2)cc1C (stereo not drawn) | 7.33 µM

From PubChem BioAssay AID651717 (Broad Institute, 2012)
